Assay results as given in ChEMBL document CHEMBL4421728, “Bach1 Inhibitors in Combination with Nrf2 Activators and Pharmaceutical Compositions Thereof” (2017).

Columns and labels:
[1] = molecular target: T1, Transcription regulator protein BACH1 (Homo sapiens) (UniProt O14867); test: Inhibition of Bach1 in normal human lung fibroblasts assessed as induction of HMOX protein expression at 2.5 uM incubated for 16 to 18 hrs in presence of 0.0097 uM Nrf2 activator Bardoxolone methyl by immunostaining relative to control
T1 sequence (whole entry): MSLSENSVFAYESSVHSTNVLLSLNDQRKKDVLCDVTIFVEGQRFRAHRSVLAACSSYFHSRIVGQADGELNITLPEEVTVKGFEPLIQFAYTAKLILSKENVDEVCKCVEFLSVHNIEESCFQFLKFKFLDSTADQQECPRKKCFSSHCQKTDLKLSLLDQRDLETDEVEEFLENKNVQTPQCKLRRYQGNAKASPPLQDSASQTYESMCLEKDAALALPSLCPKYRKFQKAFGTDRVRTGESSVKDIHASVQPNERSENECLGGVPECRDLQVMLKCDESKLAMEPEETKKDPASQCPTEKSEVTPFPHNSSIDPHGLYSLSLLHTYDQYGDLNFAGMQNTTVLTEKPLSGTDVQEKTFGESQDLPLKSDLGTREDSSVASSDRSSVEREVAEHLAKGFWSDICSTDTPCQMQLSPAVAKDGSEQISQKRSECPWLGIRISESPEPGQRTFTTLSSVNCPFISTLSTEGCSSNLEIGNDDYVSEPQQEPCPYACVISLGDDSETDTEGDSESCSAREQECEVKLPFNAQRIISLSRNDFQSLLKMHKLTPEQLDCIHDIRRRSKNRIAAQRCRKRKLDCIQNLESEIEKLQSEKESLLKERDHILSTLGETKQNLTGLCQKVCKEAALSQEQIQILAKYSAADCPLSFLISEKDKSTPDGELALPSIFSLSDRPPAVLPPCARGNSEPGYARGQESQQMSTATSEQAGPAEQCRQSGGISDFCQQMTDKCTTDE

[2] = molecular target: T1, Transcription regulator protein BACH1 (Homo sapiens); test: Inhibition of Bach1 in normal human lung fibroblasts assessed as induction of HMOX protein expression at 0.019 uM incubated for 16 to 18 hrs in presence of 0.019 uM Nrf2 activator Bardoxolone methyl by immunostaining relative to control
[3] = molecular target: T1, Transcription regulator protein BACH1 (Homo sapiens); test: Inhibition of Bach1 in normal human lung fibroblasts assessed as induction of HMOX protein expression at 0.625 uM incubated for 16 to 18 hrs by immunostaining relative to control
[4] = molecular target: T1, Transcription regulator protein BACH1 (Homo sapiens); test: Inhibition of Bach1 in normal human lung fibroblasts assessed as induction of HMOX protein expression at 5 uM incubated for 16 to 18 hrs by immunostaining relative to control
[5] = molecular target: T1, Transcription regulator protein BACH1 (Homo sapiens); test: Inhibition of Bach1 in normal human lung fibroblasts assessed as induction of HMOX protein expression at 1.25 uM incubated for 16 to 18 hrs in presence of 0.019 uM Nrf2 activator Bardoxolone methyl by immunostaining relative to control
[6] = molecular target: T1, Transcription regulator protein BACH1 (Homo sapiens); test: Inhibition of Bach1 in normal human lung fibroblasts assessed as induction of HMOX protein expression at 1.25 uM incubated for 16 to 18 hrs in presence of 0.312 uM Nrf2 activator Bardoxolone methyl by immunostaining relative to control
[7] = molecular target: T1, Transcription regulator protein BACH1 (Homo sapiens); test: Inhibition of Bach1 in normal human lung fibroblasts assessed as induction of HMOX protein expression at 0.078 uM incubated for 16 to 18 hrs in presence of 0.0048 uM Nrf2 activator Bardoxolone methyl by immunostaining relative to control
[8] = molecular target: T1, Transcription regulator protein BACH1 (Homo sapiens); test: Inhibition of Bach1 in normal human lung fibroblasts assessed as induction of HMOX protein expression at 0.078 uM incubated for 16 to 18 hrs in presence of 0.078 uM Nrf2 activator Bardoxolone methyl by immunostaining relative to control
[9] = molecular target: T1, Transcription regulator protein BACH1 (Homo sapiens); test: Inhibition of Bach1 in normal human lung fibroblasts assessed as induction of HMOX protein expression at 0.625 uM incubated for 16 to 18 hrs in presence of 0.078 uM Nrf2 activator Bardoxolone methyl by immunostaining relative to control
[10] = molecular target: T1, Transcription regulator protein BACH1 (Homo sapiens); test: Inhibition of Bach1 in normal human lung fibroblasts assessed as induction of HMOX protein expression at 0.039 uM incubated for 16 to 18 hrs in presence of 0.312 uM Nrf2 activator Bardoxolone methyl by immunostaining relative to control
[11] = molecular target: T1, Transcription regulator protein BACH1 (Homo sapiens); test: Inhibition of Bach1 in normal human lung fibroblasts assessed as induction of HMOX protein expression at 0.156 uM incubated for 16 to 18 hrs in presence of 0.0048 uM Nrf2 activator Bardoxolone methyl by immunostaining relative to control
[12] = molecular target: T1, Transcription regulator protein BACH1 (Homo sapiens); test: Inhibition of Bach1 in normal human lung fibroblasts assessed as induction of HMOX protein expression at 0.078 uM incubated for 16 to 18 hrs in presence of 0.312 uM Nrf2 activator Bardoxolone methyl by immunostaining relative to control
[13] = molecular target: T1, Transcription regulator protein BACH1 (Homo sapiens); test: Inhibition of Bach1 in normal human lung fibroblasts assessed as induction of HMOX protein expression at 0.039 uM incubated for 16 to 18 hrs in presence of 0.0024 uM Nrf2 activator Bardoxolone methyl by immunostaining relative to control
[14] = molecular target: T1, Transcription regulator protein BACH1 (Homo sapiens); test: Inhibition of Bach1 in normal human lung fibroblasts assessed as induction of HMOX protein expression at 0.312 uM incubated for 16 to 18 hrs in presence of 0.312 uM Nrf2 activator Bardoxolone methyl by immunostaining relative to control
[15] = molecular target: T1, Transcription regulator protein BACH1 (Homo sapiens); test: Inhibition of Bach1 in normal human lung fibroblasts assessed as induction of HMOX protein expression at 0.039 uM incubated for 16 to 18 hrs in presence of 0.039 uM Nrf2 activator Bardoxolone methyl by immunostaining relative to control
[16] = molecular target: T1, Transcription regulator protein BACH1 (Homo sapiens); test: Inhibition of Bach1 in normal human lung fibroblasts assessed as induction of HMOX protein expression at 0.156 uM incubated for 16 to 18 hrs in presence of 0.078 uM Nrf2 activator Bardoxolone methyl by immunostaining relative to control
[17] = molecular target: T1, Transcription regulator protein BACH1 (Homo sapiens); test: Inhibition of Bach1 in normal human lung fibroblasts assessed as induction of HMOX protein expression at 0.019 uM incubated for 16 to 18 hrs in presence of 0.0048 uM Nrf2 activator Bardoxolone methyl by immunostaining relative to control
[18] = molecular target: T1, Transcription regulator protein BACH1 (Homo sapiens); test: Inhibition of Bach1 in normal human lung fibroblasts assessed as induction of HMOX protein expression at 2.5 uM incubated for 16 to 18 hrs in presence of 0.312 uM Nrf2 activator Bardoxolone methyl by immunostaining relative to control
[19] = molecular target: T1, Transcription regulator protein BACH1 (Homo sapiens); test: Inhibition of Bach1 in normal human lung fibroblasts assessed as induction of HMOX protein expression at 0.625 uM incubated for 16 to 18 hrs in presence of 0.0048 uM Nrf2 activator Bardoxolone methyl by immunostaining relative to control
[20] = molecular target: T1, Transcription regulator protein BACH1 (Homo sapiens); test: Inhibition of Bach1 in normal human lung fibroblasts assessed as induction of HMOX protein expression at 0.625 uM incubated for 16 to 18 hrs in presence of 0.312 uM Nrf2 activator Bardoxolone methyl by immunostaining relative to control
[21] = molecular target: T1, Transcription regulator protein BACH1 (Homo sapiens); test: Inhibition of Bach1 in normal human lung fibroblasts assessed as induction of HMOX protein expression at 0.312 uM incubated for 16 to 18 hrs in presence of 0.0024 uM Nrf2 activator Bardoxolone methyl by immunostaining relative to control

fold change (FC) [1]: 19.4
fold change (FC) [2]: 10
fold change (FC) [3]: 15
fold change (FC) [4]: 17.7
fold change (FC) [5]: 15.9
fold change (FC) [6]: 10.5
fold change (FC) [7]: 4.72
fold change (FC) [8]: 19.5
fold change (FC) [9]: 18.6
fold change (FC) [10]: 17.4
fold change (FC) [11]: 8.04
fold change (FC) [12]: 15.3
fold change (FC) [13]: 2.32
fold change (FC) [14]: 17.4
fold change (FC) [15]: 14.7
fold change (FC) [16]: 18.4
fold change (FC) [17]: 2.88
fold change (FC) [18]: 10
fold change (FC) [19]: 17.1
fold change (FC) [20]: 12.7
fold change (FC) [21]: 11.7
Compound: CNC(=O)c1ccc2c(c1)nc(Nc1nc3ccc(OC(F)(F)F)cc3s1)n2C
